From patent publication US7759345B2, “Antitumoral derivatives of ET-743” (priority 2001, dated 2010) come the findings set out here.

Like-named read-outs stand apart in the source and are kept apart here.

Common to all, as to type: cell-based
One assay deals with HT-29. Nature of the assay: Inhibition of cells growth by colorimetric assay (SRB), HT-29. The following applies: for GI50 / LC50 (concentration for 50% cell killing): Homo sapiens, HT-29, 48 h; for GI50: read-out: GI50 HT-29; for LC50 (concentration for 50% cell killing): read-out: LC50 HT-29, HT-29. In a few lines: (§1)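 First, cells were plated at 5×10^3 per well and left 18 h to attach. Next, compound was added over 10 to 10^−8 μg/ml for 48 h. Finally, cells were TCA-fixed, SRB-stained and absorbance read at 490 nm.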

The next assay relates to HMEC1. The assay is described as follows: Inhibition of cells growth by colorimetric assay (SRB), HMEC1. The procedure:
(§2) 2°.—Inhibition of Cells Growth by Colorimetric Assay.
(§3) A colorimetric type of assay, using sulforhodamine B (SRB) reaction has been adapted for a quantitative measurement of cell growth and viability [following the technique described by Philip Skehan, et al. (1990), New colorimetric cytotoxicity assay for anticancer drug screening, J. Natl. Cancer Inst., 82:1107-1112]
(§4) This form of the assay employs 96 well cell culture microplates of 9 mm diameter (Faircloth, 1988; Mosmann, 1983). Most of the cell lines are obtained from American Type Culture Collection (ATCC) derived from different human cancer types.
(§5) Cells are maintained in RPMI 1640 10% FBS, supplemented with 0.1 g/l penicillin and 0.1 g/l streptomycin sulfate and then incubated at 37° C., 5% CO2 and 98% humidity. For the experiments, cells were harvested from subconfluent cultures using trypsin and resuspended in fresh medium before plating.
(§6) Cells are seeded in 96 well microtiter plates, at 5×10^3 cells per well in aliquots of 195 μl medium, and they are allowed to attach to the plate surface by growing in drug free medium for 18 hours. Afterward, samples are added in aliquots of 5 μl in a ranging from 10 to 10^−8 μg/ml, dissolved in DMSO/EtOH/PBS (0.5:0.5:99). After 48 hours exposure, the antitumor effect are measured by the SRB methodology: cells are fixed by adding 50 μl of cold 50% (wt/vol) trichloroacetic acid (TCA) and incubating for 60 minutes at 4° C. Plates are washed with deionized water and dried. One hundred μl of SRB solution (0.4% wt/vol in 1% acetic acid) is added to each microtiter well and incubated for 10 minutes at room temperature. Unbound SRB is removed by washing with 1% acetic acid. Plates are air dried and bound stain is solubilized with Tris buffer. Optical densities are read on a automated spectrophotometric plate reader at a single wavelength of 490 nm.
(§7) The values for mean+/−SD of data from triplicate wells are calculated. Some parameters for cellular responses can be calculated: GI=growth inhibition, TGI=total growth inhibition (cytostatic effect) and LC=cell killing (cytotoxic effect).
(§8) Obtained results may predict the usefulness of a certain drug as a potential cancer treatment. For this technique, compounds which show GI50 values smaller than 10 μg/ml are selected to continue with further studies. GI50's data allow to predict that not only could a drug be cystostatic, but also it could have a potential in terms of tumor reduction.

The test system of the next assay is A-549. Nature of the assay: Inhibition of cells growth by colorimetric assay (SRB), A-549. The conditions noted are these: for GI50 / LC50 (concentration for 50% cell killing): Homo sapiens, A549, 48 h; for GI50: read-out: GI50 A-549; for LC50 (concentration for 50% cell killing): read-out: LC50 A-549, A-549. The gist of the method: as §1
The test system of the next assay is SK-BR-3. The assay is described as follows: Inhibition of cells growth by colorimetric assay (SRB), SK-BR-3. The conditions noted are these: SRB, 48 hours exposure. The procedure: as §2, §3, §4, §5, §6, §7, §8
Another assay has as its system DU-145. Nature of the assay: Inhibition of cells growth by colorimetric assay (SRB), DU-145. The conditions noted are these: SRB, 48 hours exposure. The procedure:
as §2, §3, §4, §5, §6, §7, §8

Another assay relates to LoVo. Nature of the assay: Inhibition of cells growth by colorimetric assay (SRB), LoVo. The following applies: SRB, 48 hours exposure. On the procedure:
as §2, §3, §4, §5, §6, §7, §8

The subject of another assay is K-562. Nature of the assay: Inhibition of cells growth by colorimetric assay (SRB), K-562. The following applies: SRB, 48 hours exposure. On the procedure:
as §2, §3, §4, §5, §6, §7, §8

The test system of the next assay is SK-OV-3. Nature of the assay: Inhibition of cells growth by colorimetric assay (SRB), SK-OV-3. The following applies: SRB, 48 hours exposure. The procedure:
as §2, §3, §4, §5, §6, §7, §8

Another assay deals with SK-MEL-28. Nature of the assay: Inhibition of cells growth by colorimetric assay (SRB), SK-MEL-28. The conditions noted are these: SRB, 48 hours exposure. The procedure: as §2, §3, §4, §5, §6, §7, §8
A further assay concerns LoVo-Dox. Nature of the assay: Inhibition of cells growth by colorimetric assay (SRB), LoVo-Dox. The conditions noted are these: SRB, 48 hours exposure. The procedure:
as §2, §3, §4, §5, §6, §7, §8

The subject of a further assay is PANC-1. The assay is described as follows: Inhibition of cells growth by colorimetric assay (SRB), PANC-1. The conditions noted are these: SRB, 48 hours exposure. On the procedure:
as §2, §3, §4, §5, §6, §7, §8

In the next assay the test system is IGROV-1. The assay is described as follows: Inhibition of cells growth by colorimetric assay (SRB), IGROV-1. The following applies: SRB, 48 hours exposure. The procedure:
as §2, §3, §4, §5, §6, §7, §8

Another assay has as its system IGROV-ET. Nature of the assay: Inhibition of cells growth by colorimetric assay (SRB), IGROV-ET. The conditions noted are these: SRB, 48 hours exposure. The procedure: as §2, §3, §4, §5, §6, §7, §8

As usually defined, the GI50 is the concentration that inhibits growth by half. In general, LC50 refers to the concentration that kills 50% of the test population.

In the case of `COc1cc2c(cc1OC(=O)OC(C)(C)C)CCN[C@]21CS[C@@H]2c3c(OC(C)=O)c(C)c4c(c3[C@H](COC1=O)N1C2[C@H]2c3c(cc(C)c(OC)c3OC(C)C)C[C@@H]([C@@H]1C#N)N2C)OCO4` (stereo partly drawn) [Compound 46], in the assay on HT-29 (HT-29, SRB, 48 hours exposure), the “TGI HT-29” value stood at 1.95E-06. Also, the GI50 in the assay on HT-29 came out at 398 nM; with HMEC1 (Homo sapiens, HMEC-1, 48 h, read-out: GI50 HMEC-1), 152 nM; with A-549, 179 nM. The LC50 (concentration for 50% cell killing) in the assay on HT-29 (SRB, 48 hours exposure) is 11 µM; in the assay on A-549 (SRB, 48 hours exposure) it was 927 nM. In addition, the “TGI HMEC-1” value with HMEC1 (HMEC-1, SRB, 48 hours exposure) amounted to 5.18E-07. In addition, the LC50 with HMEC1 (Homo sapiens, HMEC-1, 48 h, read-out: LC50 HMEC-1, HMEC-1, SRB, 48 hours exposure) amounted to 11 µM. In addition, in the assay on A-549 (A-549, SRB, 48 hours exposure), the “TGI A-549” value is listed as 4.06E-07.

For the compound `COc1cc2c(cc1O)CCN[C@]21CS[C@@H]2c3c(OC(C)=O)c(C)c4c(c3[C@H](COC1=O)N1C2[C@H]2c3c(cc(C)c(OC)c3OC(C)C)C[C@@H]([C@@H]1C#N)N2C)OCO4` (stereo partly drawn) [Compound 48], the GI50 in the assay on SK-BR-3 (Homo sapiens, SK-BR-3, 48 h, SK-BR3, read-out: GI50 SK-BR3) came out at 443 nM; with DU-145 (Homo sapiens, DU-145, 48 h, DU-145, read-out: GI50 DU-145) it was 614 nM; in the assay with LoVo (Homo sapiens, LoVo, 48 h, LOVO, read-out: GI50 LOVO) it was 713 nM; with K-562 (Homo sapiens, K562, 48 h, K-562, read-out: GI50 K-562), 223 nM; in the assay on SK-OV-3 (Homo sapiens, SK-OV-3, 48 h, SK-OV3, read-out: GI50 SK-OV3), 614 nM; in the assay on SK-MEL-28 (Homo sapiens, SK-MEL-28, 48 h, MEL-28, read-out: GI50 MEL-28) it was 1100 nM. Besides, the GI50 in the assay on LoVo-Dox (Homo sapiens, 48 h, LOVO-DOX, read-out: GI50 LOVO-DOX) is 790 nM; with HT-29 (HT-29, SRB, 48 hours exposure) it was 1970 nM; in the assay with PANC-1 (Homo sapiens, PANC-1, 48 h, PANC-1, read-out: GI50 PANC-1), 910 nM; with IGROV-1 (Homo sapiens, IGROV-1, 48 h, IGROV, read-out: GI50 IGROV), 439 nM; in the assay with IGROV-ET (Homo sapiens, 48 h, IGROV-ET, read-out: GI50 IGROV-ET), 678 nM; in the assay on A-549 (A-549, SRB, 48 hours exposure), 272 nM. Besides, the CC50 with SK-BR-3 (Homo sapiens, SK-BR-3, 48 h, read-out: LC50 SK-BR3, SK-BR3) worked out at 6.97 µM; in the assay on DU-145 (Homo sapiens, DU-145, 48 h, read-out: LC50 DU-145, DU-145), 12.3 µM; in the assay with SK-MEL-28 (Homo sapiens, SK-MEL-28, 48 h, read-out: LC50 MEL-28, MEL-28), 7.06 µM; in the assay on LoVo-Dox (Homo sapiens, 48 h, read-out: LC50 LOVO-DOX, LOVO-DOX) it was 12.3 µM; in the assay on IGROV-1 (Homo sapiens, IGROV-1, 48 h, read-out: LC50 IGROV, IGROV) it was 7.98 µM; in the assay on IGROV-ET (Homo sapiens, 48 h, read-out: LC50 IGROV-ET, IGROV-ET) it was 12.3 µM. Also, in the assay with SK-BR-3 (SK-BR3), the “TGI SK-BR3” value is 1.54E-06. Besides, in the assay with DU-145 (DU-145), the “TGI DU-145” value was found to be 3.20E-06. Besides, the LC50 (concentration for 50% cell killing) worked out at 12.3 µM in the assay on LoVo (Homo sapiens, LoVo, 48 h, read-out: LC50 LOVO, LOVO); 12.3 µM with HT-29 (SRB, 48 hours exposure); 3890 nM in the assay with A-549 (SRB, 48 hours exposure). Besides, the “TGI LOVO” value in the assay with LoVo (LOVO) was determined as 2.95E-06. In addition, the LC50 (50% cell killing) with K-562 (Homo sapiens, K562, 48 h, read-out: LC50 K-562, K-562) was 1230 nM. The “TGI K-562” value in the assay with K-562 (K-562) is listed as 5.47E-07. Further, in the assay with SK-OV-3 (Homo sapiens, SK-OV-3, 48 h, read-out: LC50 SK-OV3, SK-OV3), the LC50 amounted to 12.3 µM. Moreover, the “TGI SK-OV3” value with SK-OV-3 (SK-OV3) is 3.40E-06. Besides, the “TGI MEL-28” value with SK-MEL-28 (MEL-28) came to 2.87E-06. Moreover, the “TGI LOVO-DOX” value with LoVo-Dox (LOVO-DOX) came to 4.18E-06. Besides, the “TGI HT-29” value in the assay with HT-29 (HT-29, SRB, 48 hours exposure) was 1.23E-05. Further, in the assay on PANC-1 (Homo sapiens, PANC-1, 48 h, read-out: LC50 PANC-1, PANC-1), the LC50 (concentration for 50% net cell kill) was 12.3 µM. Further, in the assay on PANC-1 (PANC-1), the “TGI PANC-1” value came out at 5.10E-06. Besides, the “TGI IGROV” value in the assay with IGROV-1 (IGROV) is given as 1.78E-06. Also, in the assay on IGROV-ET (IGROV-ET), the “TGI IGROV-ET” value stood at 2.93E-06. In addition, the “TGI A-549” value in the assay on A-549 (A-549, SRB, 48 hours exposure) turned out to be 7.50E-07.
